{"source": "paper PMC9227536", "about": "“Prediction of Pharmacokinetics of IDP-73152 in Humans Using Physiologically-Based Pharmacokinetics” (Pharmaceutics, 2022)", "key": {"[1]": {"assay": "Unbound fraction in plasma (rapid equilibrium dialysis), mouse", "format": "in vitro ADME", "details": "mice plasma, 0.3, 1, 3 μM, RED 5 h, read-out: fu,p", "method": "The unbound fractions of IDP-73152 in various matrices were measured according to the manufacturer’s instructions for the rapid equilibrium dialysis (RED) device (ThermoFisher Scientific, Waltham, MA, USA). Briefly, IDP-73152 was added to the plasma or the microsomal/hepatocyte incubation buffer from various species (i.e., mouse, rat, dog, and human for microsomal incubation; rat for hepatocyte incubation) to obtain final concentrations of the compound at 0.3, 1, and 3 μM. After the membrane insert was placed in the RED plate, the solution containing IDP-73152 was added (400 µL) to the sample chamber, and the dialysis buffer (600 μL) was added to the buffer chamber. The RED plate was sealed with parafilm and then incubated at 37 °C in the orbital shaker (Lab Companion, Daejeon, Korea) at 100 rpm for 5 h. After a 50 μL aliquot was aspirated from both the sample and buffer chambers, an equal volume of protein-free buffer or blank medium was replaced in the aspirated sample or buffer to render the matrices compositionally identical. The IDP-73152 concentration in the buffer/sample chambers (i.e., CBuffer Chamber and CSample Chamber) was determined by an assay. Thus, the fraction unbound was defined as:(2) % Fraction unbound=(CBuffer Chamber/CSample Chamber)×100%"}, "[2]": {"assay": "PBPK model prediction, rats", "excerpt": "In this study, the PBPK model involving ten tissues (i.e., adipose tissue, brain, heart, kidney, liver, lung, muscle, skin, spleen, and testis (Figure 2; see Appendix A for detailed mathematical descriptions)) was considered to be applicable for the description of IDP-73152 PK in rats, mice, dogs, and humans. Physiological variables were obtained from the literature; they are summarized in Supplementary Table S1.\nIn addition, from metabolic stability studies, it was evident that IDP-73152 was metabolically unstable in the incubations containing liver microsomes (from all species)/hepatocytes (from rats) and in the rat plasma. […] Accordingly, during model development, we initially assumed that IDP-73152 was entirely eliminated by the metabolism in the liver (namely, CLh) and in the blood (namely, CLblood) in rats: For other species (i.e., mice, dogs, and humans), the elimination was assumed to be primarily mediated by metabolism in the liver. From the results of in vitro metabolic stability studies, the hepatic clearance (CLh) in rats was estimated under the assumption that the well-stirred liver model was adequate for IDP-73152 [29]:(9) CLh=QLI×BP×fu,p×CLu,int,H/QLI×BP+fu,p×CLu,int,H, where QLI, and fu,p represent the liver blood flow and the unbound fraction of IDP-73152 in the plasma, respectively.\nFor the estimation of the volume of the distribution of IDP-73512 in rats, the steady-state volume of distribution (Vss) was calculated using the following equation [30]:(10) Vss=VP+Vrbc×EP+∑VT,i×KP,ss,i, where Vp, Vrbc, and VT,i are the volumes of plasma, red blood cells, and tissues, respectively. The erythrocyte-to-plasma partition coefficient (EP), is calculated by EP=1+(BP−1)/Hematocrit . The KP,ss for each tissue obtained from Equation (8) was applied for Equation (10). For the case of non-eliminating organs, the KP,ss was regarded as the tissue-to-plasma partition coefficient (KP) in PBPK equations (Appendix A). For the case of the liver—i.e., the eliminating organ—the KP,ss (KP,ss,LI) had to be corrected to account for the equilibrium being altered by the elimination. Thus, a PBPK-operative KP for liver (KP,LI) was calculated using the following equation [31]:(11) KP,LI=KP,ss,LI/(1−ER), where ER is the hepatic extraction ratio of the compound (i.e., CLh/(QLI·BP)). In this study, a compartmental absorption and transit (CAT) model consisting of stomach and five intestinal segments was considered for the description of the intestinal absorption kinetics of IDP-73152 in animals and humans. We assumed that the initial compartment denoted the stomach (Equation (12)), and the subsequent three compartments represented the small intestine and two additional compartments for the large intestine (i.e., a total of six compartments, with absorption occurring in the five intestinal compartments) (Equation (13)). […]\nFor the intestine, viz. i = 1~5:(13) dMi/dt=Kt,i−1×Mi−1−(Kt,i+ka,i)×Mi, where Ms is the amount of drug in the stomach; Mi is the amount of drug in the i-th intestinal segment; Ks, Kt,i, and ka,i are the rate constants of gastric emptying, intestinal transit, and the segmental absorption rate, respectively. […] The absorption rate constant in the intestinal segments in humans, ka,i,human, was assumed to be identical along the segments and calculated as follows: first, Peff was empirically estimated from the Caco-2 cell permeability (Papp):(14) LogPeff=0.4926×LogPapp−0.1454 […]"}, "[3]": {"test_system": "vancomycin-resistant Enterococcus faecium", "details": "infected mice, twice-a-day dosing; cited from earlier work"}}, "data": [{"molecule": "CC(C)(C)[C@H](NC(=O)[C@H](CC1CCCC1)CN(O)C=O)C(=O)N1CCC(NCc2cc(F)c(F)cc2F)CC1", "note": "[IDP-73152]", "values": [{"measurement": "fraction unbound at 5 h", "setting": "[1]", "result": "0.0562 ± 0.0087"}, {"measurement": "AUC ratio (Predicted AUCinf/Observed AUCinf)", "setting": "[2]; intravenous 2.5 mg/kg", "result": 1.09}, {"measurement": "AUC ratio (Predicted AUCinf/Observed AUCinf)", "setting": "[2]; intravenous 10 mg/kg", "result": 1.14}, {"measurement": "Cmax ratio without the scaling (SF)", "setting": "[2]; oral", "result": 2.36}, {"measurement": "AUC ratio (Predicted AUCinf/Observed AUCinf)", "setting": "[2]; oral 20 mg/kg", "result": 1.03}, {"measurement": "Cmax ratio (Predicted Cmax/Observed Cmax)", "setting": "[2]; oral 20 mg/kg", "result": 1.02}, {"measurement": "ED50 (oral dose at which the survival rate was 50%)", "setting": "[3]", "result": 13.3, "unit": "mg/kg"}]}]}
